In paper PMC9246205, “Olmesartan medoxomil self-microemulsifying drug delivery system reverses apoptosis and improves cell adhesion in trinitrobenzene sulfonic acid-induced colitis in rats” (Drug Delivery, 2022):

Legend:
Format in all cases: in vivo, rat
[1] = test system: trinitrobenzene sulfonic acid-induced acute colitis; assay: Disease activity score in TNBS-induced acute colitis; settings: TNBS-colitic rats, 7 days, mean ± SEM, n = 8
Protocol: (§1) The rats were food-deprived for a day, and colitis was induced as previously described (Wang et al., [2010]). Rats were anesthetized with ether and then a 5% TNBS (Sigma, St Louis, USA) (100 mg/kg) dissolved in 0.25 mL of 50% ethanol (v/v) (2:1) was administered by a polyethylene catheter introduced rectally to 6–8 cm from the anus. Rats were set in a head-down position for 30 seconds to avoid leakage of the solution (Lu et al., [2017]). Rats were randomly divided into seven groups (n = 8) including the normal control (NC) group, TNBS-colitic (positive control, PC) group, and five TNBS-colitic-treated groups which were orally given sulfasalazine (SSZ, 100 mg/kg/day, a reference treatment for IBD) (Yousefi-Ahmadipour et al., [2020]), low and high doses of OM (OML and OMH: 3.0 and 10.0 mg/kg/day (Nagib et al., [2013])) as a raw drug and as an OMS (OMSL and OMSH). OM was suspended in distilled water containing 0.25% carboxymethyl cellulose (Gorain et al., [2014]; Komesli et al., [2019]). The treatments were given for 7 days starting 4 hours after TNBS administration (Lu et al., [2017]). Rats were evaluated for the colitis activity score. At end of the treatment period, blood was collected, and rats were sacrificed. The colon was excised, cleaned with ice-cold saline, measured for weight and length, and the macroscopic appearance was evaluated. Parts of the colon were homogenized and activities/levels of myeloperoxidase (MPO), tumor necrosis factor-α (TNF-α), interleukin-6 (IL-6), malondialdehyde (MDA), and reduced glutathione (GSH) were measured. The concentrations of olmesartan in plasma and colonic homogenate were measured by high performance liquid chromatography/mass spectrometry (HPLC/MS). Samples of the colon were obtained for hematoxylin and eosin (H&E) and immunohistochemical staining (Joo et al., [2015])). […]
The colitis activity index was measured to evaluate the activity of intestinal inflammation. The scores for weight loss, stool consistency, and fecal blood were calculated to give a disease activity score (DAS) as previously described (Wang et al., [2014]). […]

[2] = test system: trinitrobenzene sulfonic acid-induced acute colitis; assay: Colonic macroscopic examination and colon weight/length ratio in TNBS-induced acute colitis; settings: TNBS-colitic rats, 7 days; for Colon weight/length ratio: mean ± SEM, n = 8
Protocol: (§2) The rats were food-deprived for a day, and colitis was induced as previously described (Wang et al., [2010]). Rats were anesthetized with ether and then a 5% TNBS (Sigma, St Louis, USA) (100 mg/kg) dissolved in 0.25 mL of 50% ethanol (v/v) (2:1) was administered by a polyethylene catheter introduced rectally to 6–8 cm from the anus. Rats were set in a head-down position for 30 seconds to avoid leakage of the solution (Lu et al., [2017]). Rats were randomly divided into seven groups (n = 8) including the normal control (NC) group, TNBS-colitic (positive control, PC) group, and five TNBS-colitic-treated groups which were orally given sulfasalazine (SSZ, 100 mg/kg/day, a reference treatment for IBD) (Yousefi-Ahmadipour et al., [2020]), low and high doses of OM (OML and OMH: 3.0 and 10.0 mg/kg/day (Nagib et al., [2013])) as a raw drug and as an OMS (OMSL and OMSH). OM was suspended in distilled water containing 0.25% carboxymethyl cellulose (Gorain et al., [2014]; Komesli et al., [2019]). The treatments were given for 7 days starting 4 hours after TNBS administration (Lu et al., [2017]). Rats were evaluated for the colitis activity score. At end of the treatment period, blood was collected, and rats were sacrificed. The colon was excised, cleaned with ice-cold saline, measured for weight and length, and the macroscopic appearance was evaluated. Parts of the colon were homogenized and activities/levels of myeloperoxidase (MPO), tumor necrosis factor-α (TNF-α), interleukin-6 (IL-6), malondialdehyde (MDA), and reduced glutathione (GSH) were measured. The concentrations of olmesartan in plasma and colonic homogenate were measured by high performance liquid chromatography/mass spectrometry (HPLC/MS). Samples of the colon were obtained for hematoxylin and eosin (H&E) and immunohistochemical staining (Joo et al., [2015])). All evaluations were made by blinded observers.
The colon was measured for weight and length. The degree of colonic damage regarding edema, ulceration, bleeding, and necrosis was expressed as mild, moderate, or severe (Ghia et al., [2006]).

myeloperoxidase (MPO) = assay: Colonic MPO activity (ELISA, colon homogenate); settings: TNBS-colitic rats, 7 days, mean ± SEM, n = 8
Protocol: as §1, with “At end of the treatment period, blood was collected, and rats were sacrificed.” left out, “(HPLC/MS).” for “(HPLC/MS). Samples of the colon were obtained for hematoxylin and eosin (H&E) and immunohistochemical staining (Joo et al., [2015])).”
(§3) The colonic samples were homogenized using phosphate-buffered saline and a TissueLyser II (Qiagen) at 4 °C to yield a 10% homogenate. […] The colonic protein content was determined by using the Bradford method (Bradford, 1976). The activities and/or levels of MPO (a marker for neutrophil infiltration), TNF-α, IL-6, MDA, and GSH were measured using ELISA kits (MyBioSource, Inc. CA, USA) according to the manufacturer's guidelines and were expressed/mg protein.

[3] = test system: tumor necrosis factor-α (TNF-α); assay: Colonic TNF-α (ELISA, colon homogenate); settings: TNBS-colitic rats, 7 days, mean ± SEM, n = 8
Protocol: as §1, with “At end of the treatment period, blood was collected, and rats were sacrificed.” left out, “(HPLC/MS).” for “(HPLC/MS). Samples of the colon were obtained for hematoxylin and eosin (H&E) and immunohistochemical staining (Joo et al., [2015])).”
as §3

interleukin-6 (IL-6) = assay: Colonic IL-6 (ELISA, colon homogenate); settings: TNBS-colitic rats, 7 days, mean ± SEM, n = 8
Protocol: as §1, with “At end of the treatment period, blood was collected, and rats were sacrificed.” left out, “(HPLC/MS).” for “(HPLC/MS). Samples of the colon were obtained for hematoxylin and eosin (H&E) and immunohistochemical staining (Joo et al., [2015])).”
as §3

malondialdehyde (MDA) = assay: Colonic MDA (ELISA, colon homogenate); settings: TNBS-colitic rats, 7 days, mean ± SEM, n = 8
Protocol: The rats were food-deprived for a day, and colitis was induced as previously described (Wang et al., [2010]). Rats were anesthetized with ether and then a 5% TNBS (Sigma, St Louis, USA) (100 mg/kg) dissolved in 0.25 mL of 50% ethanol (v/v) (2:1) was administered by a polyethylene catheter introduced rectally to 6–8 cm from the anus. Rats were set in a head-down position for 30 seconds to avoid leakage of the solution (Lu et al., [2017]). […] Rats were evaluated for the colitis activity score. […] The colon was excised, cleaned with ice-cold saline, measured for weight and length, and the macroscopic appearance was evaluated. Parts of the colon were homogenized and activities/levels of myeloperoxidase (MPO), tumor necrosis factor-α (TNF-α), interleukin-6 (IL-6), malondialdehyde (MDA), and reduced glutathione (GSH) were measured. The concentrations of olmesartan in plasma and colonic homogenate were measured by high performance liquid chromatography/mass spectrometry (HPLC/MS). […]
The colonic samples were homogenized using phosphate-buffered saline and a TissueLyser II (Qiagen) at 4 °C to yield a 10% homogenate. […] The colonic protein content was determined by using the Bradford method (Bradford, 1976). […]

[4] = test system: reduced glutathione (GSH); assay: Colonic GSH (ELISA, colon homogenate); settings: TNBS-colitic rats, 7 days, mean ± SEM, n = 8
Protocol: as §1, with “At end of the treatment period, blood was collected, and rats were sacrificed.” left out, “(HPLC/MS).” for “(HPLC/MS). Samples of the colon were obtained for hematoxylin and eosin (H&E) and immunohistochemical staining (Joo et al., [2015])).”
as §3

[5] = test system: trinitrobenzene sulfonic acid-induced acute colitis; assay: Colonic histopathological examination (H&E); settings: TNBS-colitic rats, 7 days
Protocol: as §1
The colonic parts were fixed in 10% buffered formalin and embedded in paraffin. Sections (3–5 µm) were prepared and stained with H&E. The degree of inflammation was expressed as mild, moderate, or severe (Wirtz et al., [2007]).

E-cadherin = assay: Colonic E-cadherin immunostaining; settings: TNBS-colitic rats, 7 days
Protocol: as §1, with “(HPLC/MS).” for “(HPLC/MS). Samples of the colon were obtained for hematoxylin and eosin (H&E) and immunohistochemical staining (Joo et al., [2015])).”
(§4) Colonic sections were immunohistochemically stained for E-cadherin and Caspase-3 (ab13847; Abcam; 1:500 dilution). […] For MMP-9 immunostaining, the sections were probed with rabbit and mouse monoclonal anti-MMP-9 (1:150 dilution), detected with sheep anti-rabbit or anti-mouse IgG fluorescein isothiocyanate (1:500 dilution), and examined under a fluorescent microscope (Baugh et al., [1999]).

caspase-3 = assay: Colonic caspase-3 immunostaining; settings: TNBS-colitic rats, 7 days
Protocol: as §1, with “(HPLC/MS).” for “(HPLC/MS). Samples of the colon were obtained for hematoxylin and eosin (H&E) and immunohistochemical staining (Joo et al., [2015])).”
as §4

[6] = test system: matrix metalloproteinase-9 (MMP-9); assay: Colonic MMP-9 immunostaining; settings: TNBS-colitic rats, 7 days
Protocol: as §1, with “(HPLC/MS).” for “(HPLC/MS). Samples of the colon were obtained for hematoxylin and eosin (H&E) and immunohistochemical staining (Joo et al., [2015])).”
as §4

[7] = test system: E-cadherin, Bax, Bcl-2, cleaved caspase-3; assay: Western blot of colonic E-cadherin, Bax, Bcl-2 and cleaved caspase-3; settings: TNBS-colitic rats, 7 days
Protocol: as §2, with “observers. […]” for “observers.”

[8] = high dose 10.0 mg/kg/day orally

## CCCc1nc(C(C)(C)O)c(C(=O)OCc2oc(=O)oc2C)n1Cc1ccc(-c2ccccc2-c2nnn[nH]2)cc1 [OM, Olmesartan medoxomil]
[1]; [8]
  Disease activity score: 3.01 ± 0.25 #
[1]; low dose 3.0 mg/kg/day orally
  Disease activity score: 5.69 ± 0.26 ^
[2]; [8]
  colonic macroscopic appearance (damage): moderate improvement
  Colon weight/length ratio: 121.50 ± 6.91 # mg/cm
[2]; low dose 3.0 mg/kg/day orally
  colonic macroscopic appearance (damage): mild improvement
  Colon weight/length ratio: 176.63 ± 3.49 ^ mg/cm
Myeloperoxidase (MPO); [8]
  MPO activity: 14.52 ± 0.61 # U/mg protein
Myeloperoxidase (MPO); low dose 3.0 mg/kg/day orally
  MPO activity: 20.90 ± 1.06 ^ U/mg protein
[3]; [8]
  TNF-α: 51.45 ± 2.47 # pg/mg protein
[3]; low dose 3.0 mg/kg/day orally
  TNF-α: 69.98 ± 3.50 ^ pg/mg protein
interleukin-6 (IL-6); [8]
  IL-6: 122.43 ± 4.29 # pg/mg protein
interleukin-6 (IL-6); low dose 3.0 mg/kg/day orally
  IL-6: 160.57 ± 5.73 ^ pg/mg protein
Malondialdehyde (MDA); [8]
  MDA: 149.57 ± 2.26 # nmol/mg protein
Malondialdehyde (MDA); low dose 3.0 mg/kg/day orally
  MDA: 221.25 ± 6.23 ^ nmol/mg protein
[4]; [8]
  GSH: 29.03 ± 1.44 # nmol/mg protein
[4]; low dose 3.0 mg/kg/day orally
  GSH: 19.77 ± 0.55 ^ nmol/mg protein
[5]; [8]
  colonic histopathological damage (H&E): moderate improvement
[5]; low dose 3.0 mg/kg/day orally
  colonic histopathological damage (H&E): mild improvement
E-cadherin; [8]
  colonic E-cadherin expression (immunostaining): moderate improvement
E-cadherin; low dose 3.0 mg/kg/day orally
  colonic E-cadherin expression (immunostaining): mild improvement
caspase-3; [8]
  colonic caspase-3 expression (immunostaining): moderate improvement
caspase-3; low dose 3.0 mg/kg/day orally
  colonic caspase-3 expression (immunostaining): mild improvement
[6]; [8]
  colonic MMP-9 overexpression (immunostaining): moderate improvement
[6]; low dose 3.0 mg/kg/day orally
  colonic MMP-9 overexpression (immunostaining): mild improvement
[7]; [8]
  protein expression of colonic E-cadherin, Bax, Bcl-2, cleaved caspase-3 and Bcl-2/Bax ratio (Western blot): moderate improvements
[7]; low dose 3.0 mg/kg/day orally
  protein expression of colonic E-cadherin, Bax, Bcl-2, cleaved caspase-3 and Bcl-2/Bax ratio (Western blot): mild improvement

## O=C(O)c1cc(/N=N/c2ccc(S(=O)(=O)Nc3ccccn3)cc2)ccc1O [SSZ, sulfasalazine]
[1]; 100 mg/kg/day orally
  Disease activity score: 0.45 ± 0.06 $
[2]; 100 mg/kg/day orally
  colonic macroscopic appearance (damage): greatly improved
  Colon weight/length ratio: 78.23 ± 2.11 $ mg/cm
Myeloperoxidase (MPO); 100 mg/kg/day orally
  MPO activity: 8.01 ± 0.30 $, @ U/mg protein
[3]; 100 mg/kg/day orally
  TNF-α: 20.49 ± 0.73 $ pg/mg protein
interleukin-6 (IL-6); 100 mg/kg/day orally
  IL-6: 65.06 ± 1.46 $ pg/mg protein
[4]; 100 mg/kg/day orally
  GSH: 39.75 ± 1.38 $ nmol/mg protein
[5]; 100 mg/kg/day orally
  colonic histopathological damage (H&E): nearly normalized the colonic damage
E-cadherin; 100 mg/kg/day orally
  colonic E-cadherin expression (immunostaining): greatly upregulated and nearly normalized
caspase-3; 100 mg/kg/day orally
  colonic caspase-3 expression (immunostaining): greatly decreased and nearly normalized
[6]; 100 mg/kg/day orally
  colonic MMP-9 overexpression (immunostaining): marked improvement
[7]; 100 mg/kg/day orally
  protein expression of colonic E-cadherin, Bax, Bcl-2, cleaved caspase-3 and Bcl-2/Bax ratio (Western blot): marked improvement
